Measurements: EPA's ToxValDB 9.5 (doi:10.2903/j.efsa.2013.3269)
Converted amounts (≈) assume the structure as drawn. “And” between values parts separate entries of the source, which are not always exact repeats. Equal values may be shown once.

Experiments:
[1] = system: Anas platyrhynchos; details: oral, mortality
[2] = system: Apis mellifera; details: acute, duration: 48 hours, mortality
[3] = system: Colinus virginianus; details: acute; oral; diet; mortality
[4] = system: Oncorhynchus mykiss; details: acute; duration: 96 hours; mortality
[5] = system: Oryctolagus sp.; details: developmental; development
[6] = system: Rattus norvegicus
[7] = system: Tagia sp.; details: acute; duration: 14 days; mortality
[8] = system: Aphidius rhopalosiphi; test: LR50; higher = less toxic; details: acute; duration: 48 hours; mortality
[9] = system: Typhlodromus pyri; test: LR50; higher = less toxic; details: acute; duration: 7 days; mortality

## CCc1cc(C)cc(CC)c1-c1c(OC(=O)C(C)(C)C)n2n(c1=O)CCOCC2 [Pinoxaden]
[1]; acute, unspecified
  LD50: > 2250 mg/kg-day
[1]; short-term, feed
  LC50: > 1800 mg/kg-day
[2]; dermal
  LD50: > 100 µg/piece
[2]; oral, unspecified
  LD50: > 200 µg/piece
[3]
  LC50: > 1570 mg/kg-day
[4]
  LC50: 10.3 mg/L (≈ 25.7 µM)
[5]
  NOAEL: 30 mg/kg-day and 10 mg/kg-day
[6]; acute, oral, mortality
  LD50: > 5000 mg/kg-day
[6]; chronic, duration: 2 years, histopathology: nonneoplastic
  NOAEL: 10 mg/kg-day
[6]; reproduction developmental, body weight
  NOAEL: 250 mg/kg-day
[6]; reproduction developmental, oral, gavage, no effects
  NOAEL: 500 mg/kg-day
[7]
  LC50: > 1000 mg/kg
[8]
  LR50: 6.22 g/ha
[9]
  LR50: 1.81 g/ha
